Patent US9604946B2, “Methods for modulating bacterial virulence and related compounds” (priority 2013, dated 2017)

Columns and labels:
EHEC = experiment: qRT-PCR of gene expression in EHEC as change from wild-type expression; type: cell-based, enterohemorrhagic E. coli; conditions: 5 and 500 nM compound
QseC = QseC (Escherichia coli O157:H7, UniProt Q8X524); conditions: earlier work, U.S. Pat. No. 8,252,841; Clarke et al., 2006; Rasko et al., 2008; cited from earlier work
A. baumannii = experiment: Biofilm formation by A. baumannii; type: cell-based, Acinetobacter baumannii; conditions: acts through QseC
S. Typhimurium = S. Typhimurium replication in J774 macrophages with and without compound; type: cell-based; conditions: 500 and 5 nM compound
Method: Compounds CF325, CF326, CF327, CF329, CF330, CF331, CF332, CF333, CF334, CF338, CF339, CF340, CF341, CF342, CF343, CF344, CF345, CF349, CF350, CF351, and CF352 were screened by measuring the inhibition of S. Typhimurium replication in the presence (500 and 5 nM) and absence of the compound with J774 macrophage or using a qRT PCR study comparing the levels of gene expression in the presence of 5 and 500 nM concentrations of the target compound. Compounds CF331, CF338, CF340, CF341 and CF345 were also screened using a fluorescein actin staining test to determine the number of HeLa cells infected by measuring the inhibition of AE lesion formation.

Sequence of QseC (Q8X524 whole entry): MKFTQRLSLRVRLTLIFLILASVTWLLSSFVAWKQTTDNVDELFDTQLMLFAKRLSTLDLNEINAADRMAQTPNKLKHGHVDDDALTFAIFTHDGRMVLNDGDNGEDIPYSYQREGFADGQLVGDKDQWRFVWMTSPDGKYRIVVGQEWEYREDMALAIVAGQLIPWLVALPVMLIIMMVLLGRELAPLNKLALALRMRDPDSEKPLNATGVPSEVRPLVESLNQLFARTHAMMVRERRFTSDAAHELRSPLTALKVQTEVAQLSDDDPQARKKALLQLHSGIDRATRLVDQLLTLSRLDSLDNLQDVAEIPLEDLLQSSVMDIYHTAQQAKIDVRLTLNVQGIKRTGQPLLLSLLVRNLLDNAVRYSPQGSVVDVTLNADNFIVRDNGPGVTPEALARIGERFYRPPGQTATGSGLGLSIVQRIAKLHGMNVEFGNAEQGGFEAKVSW

Compound	activity on virulence of EHEC (gene expression level by qRT-PCR) (EHEC)	modulation of S. Typhimurium virulence (intra J774 macrophage replication) (S. Typhimurium)	further results
CC12CC3CC(C)(C1)CC(C(=O)Nc1ncco1)(C3)C2 [CF349]	acted as agonist of virulence	–	–
CC12CC3CC(C)(C1)CC(C(=O)Nc1nccs1)(C3)C2 [CF345]	antagonist activity against the virulence of EHEC	–	rank of modulation of bacterial virulence among the EHEC antagonist compounds (EHEC): greatest modulation of bacterial virulence
Cc1ccc(N(CC2=NCCN2)c2cccc(O)c2)cc1 [phentolamine]	–	–	block of QseC response to the signal (QseC): block this response; inhibition of biofilm formation (A. baumannii): inhibited
COc1cccc(OC)c1C(=O)Nc1nccs1 [CF332]	–	showed little modulation of the virulence of S. Typhimurium	–
COc1ccc(C(=O)Nc2nccs2)c(OC)c1 [CF326]	antagonist activity against the virulence of EHEC	showed potency in preventing S. Typhimurium virulence	–
O=C(Nc1nccs1)C12CC3CC(CC(C3)C1)C2 [CF331]	antagonist activity against the virulence of EHEC	–	rank of modulation of bacterial virulence among the EHEC antagonist compounds (EHEC): greatest modulation of bacterial virulence
CC(=O)Nc1nccs1 [CF327]	acted as agonist of virulence	showed little modulation of the virulence of S. Typhimurium	–
O=C(Nc1nccs1)c1c(Cl)cc(Cl)cc1Cl [CF334]	acted as agonist of virulence	–	–
COc1ccc(C(=O)Nc2nc(-c3ccc(C)cc3)cs2)c(OC)c1 [CF329]	antagonist activity against the virulence of EHEC	showed little modulation of the virulence of S. Typhimurium	–
O=C(Nc1nccs1)c1c(F)cc(F)cc1F [CF325]	–	showed potency in preventing S. Typhimurium virulence	–
CC12CC3CC(C)(C1)CC(C(=O)Nc1ncc(F)s1)(C3)C2 [CF354]	antagonist activity against the virulence of EHEC	–	–
O=S(=O)(Nc1ccccc1)c1ccc(NC(=S)Nc2ccccc2)cc1 [LED209]	–	–	block of QseC response to the signal (QseC): can block the QseC response to the signal
COc1ccc(C(=O)Nc2nc(C)c(C)s2)c(OC)c1 [CF333]	antagonist activity against the virulence of EHEC	–	–
COc1ccc(C(=O)Nc2ncc[nH]2)c(OC)c1 [CF330]	acted as agonist of virulence	–	–
CCOC(=O)c1csc(NC(=O)C23CC4CC(C)(CC(C)(C4)C2)C3)n1 [CF351]	acted as agonist of virulence	–	–
CC12CC3CC(C)(C1)CC(C(=O)Nc1nc(C#N)cs1)(C3)C2 [CF352]	antagonist activity against the virulence of EHEC	–	–
